Measured values: US20230293801A1, “Flow Electroporator Device For Therapeutic Targeting Of Circulating Tumor Cells During Hemodialysis” (ROSEMAN UNIVERSITY OF HEALTH SCIENCES, priority 2022, published 2023)

How the values were obtained:
Format in all cases: cell-based
HeLa cells [1] = assay: Cell cycle analysis by flow cytometry and propidium iodide staining of chromosomal DNA; details: HeLa cells as mocked CTCs, 40 nM doxorubicin for 24 hrs
Experimental: (§1) FIGS. 6A-G show drug delivery via electroporation. […] Cell cycle analysis is performed using flow cytometry and propidium iodide staining of chromosomal DNA. […] Error bars are standard deviation of triplicate experiments. Asterisk indicates p-value≤0.01 versus untreated control. FIGS. 6D-G show increased delivery of doxorubicin into HeLa cells via electroporation. […] Data are normalized to 1 for doxorubicin fluorescence of HeLa cells incubated with 40 nM doxorubicin without electroporation. Error bars are standard deviation of triplicate experiments. Asterisk indicates p-value≤0.01 versus no electroporation.
(§2) Another utility of the flow electroporator device is drug delivery during hemodialysis. Due to the unique cancer hallmarks of CTCs, many chemotherapeutic agents can be used for their selective targeting. […] Electroporation by the flow electroporator device enhanced doxorubicin uptake by CTCs by more than 4 fold (FIG. 6D-G). An advantage of drug delivery during hemodialysis is the subsequent removal of excess chemotherapeutic agents, thereby minimizing unnecessary side effects to cancer patients.

HeLa cells [2] = assay: Doxorubicin uptake by flow cytometry of doxorubicin fluorescence, with and without the flow electroporator device; details: HeLa cells in EMEM, 40 nM doxorubicin, 500 ml/min, 300 V/cm, 200 V/cm, normalized to no electroporation
Experimental: as §1, §2

HeLa cells [3] = assay: Confocal fluorescence imaging of intracellular lipid droplets in cells incubated with blood plasma; details: blood plasma and 10 μM A922500 for 24 hrs
Experimental: (§3) FIGS. 7A-H show A922500, a DGAT1 inhibitor, reduces the viability of CTCs in blood plasma. […] Cell viability is assayed with crystal violet staining and visualized at low resolution (left column) and high resolution (right column). […] Error bars are standard deviation of triplicate experiments. Asterisk indicates p-value≤0.01 versus culturing in EMEM medium. […] Control HeLa cells cultured in EMEM medium is presented in the top panel. HeLa cells incubated with blood plasma for 24 hrs is presented in the bottom panel. […] Images are control untreated HeLa cells cultured with EMEM medium (first panel); HeLa cells cultured in EMEM medium and treated with 10 μM A922500, a small-molecule inhibitor of diacylglycerol O-acyltransferase 1 (DGAT1), for 24 hrs (second panel); HeLa cells incubated with blood plasma for 24 hrs (third panel); and HeLa cells incubated with blood plasma and 10 μM A922500 for 24 hrs (fourth panel). FIGS. 7F-H show viability of HeLa cells following incubation with blood plasma or blood plasma and A922500. Cell viability is assayed with crystal violet staining and visualized at low resolution (FIG. 7F) and high resolution (FIG. 7G). […] Error bars are standard deviation of triplicate experiments. Single asterisk indicates p-value≤0.01 versus untreated control HeLa cells cultured with EMEM. […]

HeLa cells [4] = assay: Cell viability by crystal violet staining after incubation with blood plasma and A922500; details: blood plasma and A922500, versus blood plasma alone for 24 hrs
Experimental: as §3

SMILES | effect on cell cycle of CTCs (HeLa cells [1]) | enhancement of doxorubicin uptake by CTCs by electroporation (HeLa cells [2]) | lipid droplet accumulation in CTCs incubated with blood plasma (HeLa cells [3]) | viability of CTCs in blood plasma (HeLa cells [4])
COc1cccc2c1C(=O)c1c(O)c3c(c(O)c1C2=O)C[C@@](O)(C(=O)CO)C[C@@H]3O[C@H]1C[C@H](N)[C@H](O)[C@H](C)O1 [doxorubicin] | cell cycle arrest | more than 4 fold | – | –
O=C(Nc1ccccc1)Nc1ccc(-c2ccc(C(=O)[C@@H]3CCC[C@H]3C(=O)O)cc2)cc1 [A922500] | – | – | inhibited lipid droplet accumulation | further reduced the viability
